Source: patent publication USH1996H, “Insecticidal photostable acid salt derivatives of N-benzyl-4-benzhydrolpiperidines” (FMC Corporation, priority 1998, dated 2001)
Counter-ions that a name gives are not always drawn.

Experiments:
[1] = photostability under Suntest CPS illuminator (filtered xenon lamp), HPLC; assay type: physicochemical; conditions: photodegradation of thin film on glass coverslips, simulated sunlight (xenon lamp), about 25 °C, 0-96 hours
Description: Compounds of the present invention were subjected to determinations of their photostability in side-by-side tests with their non-ionic parent analogs. These photostability tests are conducted as follows:
For each compound tested, four glass microscope coverslips (12 mm in diameter) for each illumination period (0, 3, 6, 12, 24, 48, and 96 hours) are spotted with 10 microliters of a one mg/mL acetonitrile or methanol solution of test compound. The solutions are allowed to evaporate leaving a thin film of test compound on each coverslip. The four coverslips representing the zero hour illumination period are placed in a 20 mL scintillation vial. In the vile is placed one mL of acetonitrile, which extracts the test chemical from the coverslip. The solution is then transferred to a two dram vile for analysis by HPLC. The average HPLC peak area generated by this sample defines the initial level of test compound. The remaining coverslips are then placed in the water-cooled chamber of the exposure platform of a Suntest CPS illuminator (Heraeus Instruments GmbH; Bereich Original Hanau, Hersaeusstrasse R-14, Postfach 1563, D-6450 Hanau 1). The exposure platform is covered with a quartz plate and maintained at about 25° C. for the duration of the test. The Suntest CPS illuminator employs a filtered xenon lamp, which provides illumination of a similar spectrum and intensity as sunlight. Four coverslips for each test compound are removed from the illuminator at the end of each illumination period described above. The four coverslips from each of the illumination periods are treated as described above and the acetonitrile extract is analyzed by HPLC. The average HPLC peak area from each of the illumination periods represents a diminished amount of test compound when compared to the initial level of test compound as determined from the zero hour illumination sample. The percents of test compound remaining from each of these illumination periods are used to generate a degradation curve from which a half life in hours is determined for each test compound.

[2] = test system: tobacco budworm (Heliothis virescens [Fabricius]); assay: insecticidal activity against tobacco budworm, treated artificial diet surface; assay type: in vivo; conditions: 0.0025 millimoles on the surface of the diet; second instar larvae; five-day exposure; 7200 min
Description: Candidate insecticides are evaluated for activity against tobacco budworm (Heliothis virescens [Fabricius]) by applications to the surface of a wheat germ-based artificial insect diet. Solutions of the candidate insecticides are prepared for testing by diluting a standard 50 millimolar DMSO solution of each candidate insecticide with DMSO, then further diluting with a 1:1 water/acetone solution (V/V). Forty microliters of this solution of calculated concentration is then pipetted onto the surface of the diet in each of six containers, to provide six replicates for each rate of application. Once treated, the contents of the containers are allowed to dry, leaving the calculated concentration ( in millimoles) of candidate insecticide on the surface of the diet. In each container is placed one second instar tobacco budworm […]. The container is sealed with a transparent film, and then held in a growth chamber for five days. After the five-day exposure period the insecticidal activity of the candidate insecticide is recorded as percent mortality when compared to the total number of insects infested. Insecticidal activity at a concentration of candidate insecticide of 0.0025 millimoles on the surface of the diet is given for various compounds of this invention in Table 4.

SMILES	Half-life [1] [h]	Percent Mortality [2] [%]
CCn1nnc(-c2ccc(CN3CCC(C(O)(c4ccc(C(F)(F)F)cc4)c4ccc(C(F)(F)F)cc4)CC3)cc2)n1 [A, reference compound]	5.5	
CCn1nnc(-c2ccc(C[N+]3([O-])CCC(C(O)(c4ccc(C(F)(F)F)cc4)c4ccc(C(F)(F)F)cc4)CC3)cc2)n1 (centres unmarked) [B, N-[4-(2-ethyl-2H-tetrazol-5-yl)phenylmethyl]-4-[bis(4-trifluoromethylphenyl)hydroxymethyl]piperidine N-oxide, reference compound]	13.9	
CCn1nnc(-c2ccc(CN3CCC(C(O)(c4ccc(C(F)(F)F)cc4)c4ccc(C(F)(F)F)cc4)CC3)cc2)n1 [Compound 7]	23.0	
COC(=O)Nc1ccc(C[N+]2([O-])CCC(C(O)(c3ccc(OC(F)(F)F)cc3)c3ccc(OC(F)(F)F)cc3)CC2)cc1 (centres unmarked) [Compound 16]		100
CCn1nnc(-c2ccc(C[N+]3([O-])CCC(C(O)(c4ccc(C(F)(F)F)cc4)c4ccc(C(F)(F)F)cc4)CC3)cc2)n1 (centres unmarked) [Compound 33, N-[4-(2-ethyl-2H-tetrazol-5-yl)phenylmethyl]-4-[bis(4-trifluoro-methylphenyl)hydroxymethyl]piperidine N-oxide ethanesulfonic acid salt]	34.0	
